Reference: ChEMBL document CHEMBL1145267, “Antioxidant and antiproliferative activity of curcumin semicarbazone” (2005)

Tests used:
Assay type in all cases: functional
[1] = tested on: MCF7; experiment: Compound tested for percent viability of human MCF-7 cell line at 1 mg/mL concentration after 24 hrs by MTT method
[2] = species on record: Rattus norvegicus; experiment: Compound (10 uM) tested for percent inhibition of […] induced lipid peroxidation in rat liver microsomes; Range 80-60%
[3] = species on record: Rattus norvegicus; experiment: Compound (10 uM) tested for percent inhibition of […] induced lipid peroxidation in rat liver microsomes; Range 85-54%

Compound	Viability [1]	inhibition [2]	inhibition [3]
COc1cc(/C=C/C(=O)CC(=O)/C=C/c2ccc(O)c(OC)c2)ccc1O [CURCUMIN]	64%	80%	–
COc1cc(/C=C/C(=O)CC(/C=C/c2ccc(O)c(OC)c2)=N/NC(N)=O)ccc1O	26%	–	85%
